Laboratory results as given in US6376506B1, “Sulfamide-metalloprotease inhibitors” (Syntex (U.S.A.) LLC, priority 1997, dated 2002).

How the values were obtained:
[1] = tested on: bovine nasal cartilage plugs implanted subcutaneously in female Lewis rats; test: Cartilage plug degradation in vivo (cartilage plug implant assay, hydroxyproline content); set-up: species or system rat; conditions: 8 or 9 days, hydroxyproline content relative to vehicle group
[2] = tested on: collagen matrix of bovine cartilage explants; test: Degradation of cartilage plug in vitro (IL-1 stimulated cartilage explant, hydroxyproline content); format: cell-based; conditions: IL-1-α stimulated bovine cartilage explants, 21 days, hydroxyproline content relative to control; compounds at 10 to 300 nm
Experimental: The ability of the compounds of this invention to inhibit the degradation of the collagen matrix (as judged by release of hydroxyproline) was determined by the cartilage plug degradation assay in vitro by following a slight modification of the method described in Spirito, S., Doughty, E., et al., “Metalloproteinase inhibitors halt collagen breakdown in IL-1 induced bovine nasal cartilage cultures” Inflamm. Res., 44, Supp. 2: S131—S132, (1995).
Cartilage explants prepared from freshly sacrificed bovine knee joints were added to the culture medium (Dubelco's modified eagle medium, Gibco # 21063-001, Gibco BRL Products, Gaithersburg, Md.), without phenol red, but with HEPES, and L-glutamine and fungizone 2.5 μg/ml, gentamicin 50 μg/ml, penicillin 100 U/ml, and streptomycin 100 μg/ml). The cultures were stimulated with IL-1-α at a final concentration of 20 ng/ml. Compounds of Formula (I), were added at concentrations between 10 and 300 nm in DMSO. The control samples contained only L-1-α. The cultures were incubated at 37° C. in an atmosphere of air with 6% CO2 for 21 days during which time the medium was changed twice/week. The cartilage plugs were removed, hydrolyzed and the hydroxyproline content was determined. The MMP inhibitory activity of test materials is the measure of the hydroxyproline content in the test group relative to the vehicle treated group (control group).

[3] = biological target: T1, human collagenase-1 catalytic domain (Homo sapiens, UniProt P03956); test: MMP inhibition in vitro, human collagenase-1; format: biochemical; conditions: MCA-Pro-Leu-Gly-Leu-DPA-Ala-Arg-NH2 hydrolysis at 37° C.; read-out: Collagenase-I IC50
T1 construct: the collagenase-1 catalytic domain was released by treatment with 1 mM of aminophenylmercuric acetate (APMA); ubiquitin (cleaved yes); made in house; host or cells: E. coli
T1 sequence (P03956 100-269 limits assumed): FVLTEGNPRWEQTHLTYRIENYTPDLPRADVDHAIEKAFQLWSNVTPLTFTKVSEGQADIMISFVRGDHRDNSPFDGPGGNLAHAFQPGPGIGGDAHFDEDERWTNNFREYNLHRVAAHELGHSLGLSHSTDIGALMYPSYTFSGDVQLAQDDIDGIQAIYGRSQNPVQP
Experimental: The catalytic domain of human collagenase-1 was expressed as a fusion protein with ubiquitin in E. Coli as described in Gehring, E. R. et al., J. Biol. Chem., 270, 22507, (1995). After purification of the fusion protein, the collagenase-1 catalytic domain was released by treatment with 1 mM of aminophenylmercuric acetate (APMA) for 1 hour at 37° C. and then purified by zinc chelate chromatography.
(§1) The matrix metalloprotease inhibitory activity of compounds of this invention in vitro was determined based on the hydrolysis of MCA-Pro-Leu-Gly-Leu-DPA-Ala-Arg-NH2 (Bachem, Inc.) at 37° C. as described in Knight, C. G., et al., FEBS Lett., 296, 263-266 (1992).
(§2) The matrix metalloprotease enzyme was diluted with assay buffer (50 mM Tricine pH 7.5, 200 mM NaCl, 10 mM CaCl2, and 0.005% Brij-35) containing 10 μmole of above substrate dissolved in DMSO. Compounds of the invention dissolved in DMSO or only DMSO (control samples) were added such that the final DMSO concentration in all assays was 2.5%. The fluorescence changes were monitored with a Perkin-Elmer LS-50B flourimeter using an excitation wavelength of 328 nm and an emission wavelength of 393 nm.

[4] = biological target: T2, human collagenase-3 catalytic domain (Homo sapiens, UniProt P45452); test: MMP inhibition in vitro, human collagenase-3; format: biochemical; conditions: MCA-Pro-Leu-Gly-Leu-DPA-Ala-Arg-NH2 hydrolysis at 37° C.; read-out: Collagenase-III IC50
T2 construct: After purification, the catalytic domain was released by treatment with 1 mM APMA for 1 hour at 37° C; ubiquitin (N, cleaved yes); made in house; host or cells: E. coli
Experimental: The propeptide and catalytic domain portion of human collagcenase-3 was expressed in E. Coli as an N-terminal fusion protein with ubiquitin. After purification, the catalytic domain was released by treatment with 1 mM APMA for 1 hour at 37° C., and then purified by zinc chelate chromatography.
as §1, §2

Human Monomac 6 cells = test: Inhibition of TNF release in vitro assay (LPS/PMA stimulated); format: cell-based; conditions: Conc. 2 μM, LPS/PMA stimulated Monomac 6 cells, 2 h
Experimental: The activity of compounds of this invention in inhibiting the TNF release was determined, using the a minor modification of the method described in Pradines-Figueres, A. and Raetz, C. R. H., J. Biol. Chem., 267 (32), 23261, (1992).
Human Monomac 6 cells (Ziegler-Heitbrock, H. W. L., et al., Int. J. Cancer, 41, 456, (1988)) were cultured at 37° C. in RPMI 1640 medium containing 10% fetal calf serum to a density of 1×10^5 cells/ml. 0.23 ml of these cells were placed in each well of a tissue culture plate and the cells were incubated for 15 min. The test compounds were dissolved in above mentioned medium and added and the incubation was continued for an additional 15 min. 10 μl of an lipopolysaccharide/phorbol-12-myristate-13-acetate (LPS/PMA) mixture was added such that the final concentration of lipopolysaccharide was 10 ng/ml and the final concentration of phorbol-12-myristate-13-acetate was 30 ng/ml. The cells were incubated for 2 h after which the plate was centrifuged and the medium was removed and analyzed for TNF content. The analysis was performed using a TNF Quantikine® Immunoassay (R & D Systems, Minneapolis, Minn. 55413) by following the manufacturer's protocol.

TNF-α = test: Inhibition of LPS induced TNF-α production in mice in vivo assay; conditions: female Balb/c mice, compound subcutaneously 1 h before LPS i.p., serum TNF-α 1.5 h after LPS
Experimental: The activity of compounds of this invention in inhibiting the TNF-α release was determined using a minor modification of the methods described in Zanetti, G.; Heumann, D., et. al., “Cytokine production after intravenous or peritoneal Gram-negative bacterial challenge in mice” J. Immunol., 148, 1890, (1992) and Sekut, L., Menius, J. A., et. al., “Evaluation if the significance of related levels of systemic and localized tumor necrosis factor in different animal models of inflammation” J. Lab. Clin. Med., 124, 813, (1994).
Female Balb/c mice were anesthetized and injected subcutaneously with the test compounds dissolved in CMC vehicle or hydroxypropylmethyl cellulose based vehicle. Control animals received only the vehicle. After 1 h, LPS (50 μg/mouse, Sigma #13129, Sigma Chemical Co., St. Louis, Mo.) was injected intraperitoneally. After 1.5 h, blood was collected from the retro-orbital plexus region of the animals in a microtainer serum separator tube (Becton Dickinson, Cat. No. #5960, Becton Dickinson & Co., Franklin Lakes, N.J.). The sera was separated and the amount of TNF-α was determined using the EM-TNFA® kit (Endogen, Woburn, Mass.) by following the manufacturer's protocol.

Row | Compound | % protection [1] [%] | % protection [2] [%] | melting point [°C] | IC50 [3] [nM] | IC50 [4] [nM] | % inhibition (Human Monomac 6 cells) [%] | % inhibition (TNF-α) [%]
1 | CC(C)[C@@H](NS(=O)(=O)N1CCC(Oc2ccc(Cl)cn2)CC1)C(=O)NO [compound 100, N-hydroxy-2-(R)-{[4-(5-chloropyridin-2-yloxy)piperidine-1-sulfonyl]amino}-3-methylbutyramide] | 40 | 68 | 97 to 98.4 | – | – | – | –
2 | N-hydroxy-1-[4-(4,5,6,7-tetrafluoroindol-3-yl)piperazine-1-sulfonyl]piperidine-2-(RS)-carboxamide [compound 299] | – | – | – | > 50000 | 410 | 90 | 52
3 | CC(C)[C@@H](NS(=O)(=O)N1CCC(Oc2ccc(Cl)cc2)CC1)C(=O)NO [compound 59, N-hydroxy-2-(R)-{[4-(4-chlorophenoxy)piperidine-1-sulfonyl]amino}-3-methylbutyramide] | 58 | 54 | 139.2 to 139.6 | 110 | 0.18 | – | –
4 | O=C(NO)[C@H](CSCc1ccccc1)NS(=O)(=O)N1CCN(c2ccc(Cl)cn2)CC1 [compound 102] | – | – | 86 to 86.7 | 338 | 0.92 | – | –
5 | CC(C)[C@@H](NS(=O)(=O)N1CCN(c2ccc(Cl)cc2)CC1)C(=O)NO [compound 51, N-hydroxy-2-(R)-{[4-(4-chlorophenyl)piperazine-1-sulfonyl]amino}-3-methylbutyramide] | – | – | 154.1 to 154.8 | 490 | 2.6 | – | –
6 | N-hydroxy-4-(morpholine-4-ylcarbonyl)piperazine-1-sulfonyl]-4-(S)-hydroxypiperidine-2-(R)-carboxamide [compound 321] | – | – | – | – | – | 93 | 50
7 | C[C@@H](NS(=O)(=O)N1CC=C(c2ccc(Cl)cc2)CC1)C(=O)NO [compound 401] | – | – | 90.7 to 93 | 250 | 0.19 | – | –
8 | O=C(NO)C1CCCCN1S(=O)(=O)N1CCC(c2c[nH]c3cc(Cl)ccc23)CC1 (racemic) [compound 256] | – | – | 143 to 151 | 26000 | 33 | – | –
9 | CC(C)[C@@H](NS(=O)(=O)N1CCN(c2ccc(OCc3ccccc3)cc2)CC1)C(=O)NO [compound 74, N-hydroxy-2-(R)-{[4-(4-benzyloxyphenyl)piperazine-1-sulfonyl]amino}-3-methylbutyramide] | – | – | 149 to 156 | 7600 | 0.73 | – | –
10 | O=C(NO)C1CCCCN1S(=O)(=O)N1CCC(c2noc3cc(F)ccc23)CC1 (racemic) [compound 286] | – | – | 145.8 to 146.9 | 29 | 0.063 | – | –
11 | O=C(NO)C1(NS(=O)(=O)N2CCN(c3ccc(Cl)cc3)CC2)CCCCC1 [compound 345, N-hydroxy-1-{[4-(4-chlorophenyl)piperazine-1-sulfonyl]amino}-cyclohexane-1-carboxamide] | – | – | 146.1 to 146.6 | 530 | 6.6 | – | –
12 | CC(C)[C@@H](NS(=O)(=O)N1CCC(Oc2ccc(F)cc2)CC1)C(=O)NO [compound 179] | – | – | 74.3 to 75.3 | 23 | 0.073 | – | –
13 | CN(C)C(=O)N1CCN(S(=O)(=O)N2CCC(c3c[nH]c4c(F)c(F)c(F)c(F)c34)CC2)[C@@H](C(=O)NO)C1 [compound 309] | – | – | 181 to 184 | > 50000 | 500 | – | –
